Assay results reported in PubChem BioAssay (NCI).
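Dose response: 5 concentrations. Exposure: 48 h. Format: 96-well plates. Endpoint: linear interpolation; highest concentration if not reached. The concentration for full growth arrest is given as TGI.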

What was measured:
Experiment in all cases: NCI anticancer screen, dose series, 48 h
K-562 leukemia = tested on: K-562 leukemia
NCI-H522 lung = tested on: NCI-H522 lung
OVCAR-3 ovarian = tested on: OVCAR-3 ovarian
UACC-62 melanoma = tested on: UACC-62 melanoma
CCRF-CEM leukemia = tested on: CCRF-CEM leukemia
RXF 393 renal = tested on: RXF 393 renal
RPMI-8226 leukemia = tested on: RPMI-8226 leukemia
SR leukemia = tested on: SR leukemia
SW-620 colon = tested on: SW-620 colon
OVCAR-5 ovarian = tested on: OVCAR-5 ovarian
UO-31 renal = tested on: UO-31 renal
M14 melanoma = tested on: M14 melanoma
SF-268 CNS = tested on: SF-268 CNS
HOP-62 NSCLC = tested on: HOP-62 NSCLC
UACC-257 melanoma = tested on: UACC-257 melanoma
MOLT-4 leukemia = tested on: MOLT-4 leukemia
DMS 273 small cell lung = tested on: DMS 273 small cell lung
SN12C renal = tested on: SN12C renal
SK-MEL-5 melanoma = tested on: SK-MEL-5 melanoma
OVCAR-8 ovarian = tested on: OVCAR-8 ovarian
SF-539 CNS = tested on: SF-539 CNS
OVCAR-4 ovarian = tested on: OVCAR-4 ovarian
MALME-3M melanoma = tested on: MALME-3M melanoma
SNB-19 CNS = tested on: SNB-19 CNS
M19-MEL melanoma = tested on: M19-MEL melanoma
HT29 colon = tested on: HT29 colon
IGROV1 ovarian = tested on: IGROV1 ovarian
DMS 114 small cell lung = tested on: DMS 114 small cell lung
DLD-1 colon = tested on: DLD-1 colon
NCI-H23 lung = tested on: NCI-H23 lung
KM20L2 colon = tested on: KM20L2 colon
SF-295 CNS = tested on: SF-295 CNS
LOX IMVI melanoma = tested on: LOX IMVI melanoma
HCT-15 colon = tested on: HCT-15 colon
SK-OV-3 ovarian = tested on: SK-OV-3 ovarian
SNB-75 CNS = tested on: SNB-75 CNS
LXFL 529 NSCLC = tested on: LXFL 529 NSCLC
A549 NSCLC = tested on: A549 NSCLC
SK-MEL-28 melanoma = tested on: SK-MEL-28 melanoma
CAKI-1 renal = tested on: CAKI-1 renal
SK-MEL-2 melanoma = tested on: SK-MEL-2 melanoma
NCI-H226 lung = tested on: NCI-H226 lung
KM12 colon = tested on: KM12 colon
HOP-92 NSCLC = tested on: HOP-92 NSCLC
COLO 205 colon = tested on: COLO 205 colon
ACHN renal = tested on: ACHN renal
786-0 renal = tested on: 786-0 renal
TK-10 renal = tested on: TK-10 renal
U251 CNS = tested on: U251 CNS
HCT-116 colon = tested on: HCT-116 colon
HL-60(TB) leukemia = tested on: HL-60(TB) leukemia
NCI-H460 lung = tested on: NCI-H460 lung
HOP-18 NSCLC = tested on: HOP-18 NSCLC
SNB-78 CNS = tested on: SNB-78 CNS
HCC-2998 colon = tested on: HCC-2998 colon
RXF-631 renal = tested on: RXF-631 renal
EKVX NSCLC = tested on: EKVX NSCLC
XF 498 CNS = tested on: XF 498 CNS

Compound: O=C(c1ccc(Cl)cc1)N(C(=S)N1CCN(c2ccccc2)CC1)C1CCCCC1
- TGI (K-562 leukemia): > 100 µM
- TGI (NCI-H522 lung): > 100 µM
- TGI (OVCAR-3 ovarian): > 100 µM
- TGI (UACC-62 melanoma): > 100 µM
- TGI (CCRF-CEM leukemia): > 100 µM
- TGI (RXF 393 renal): > 100 µM
- TGI (RPMI-8226 leukemia): > 100 µM
- TGI (SR leukemia): > 100 µM
- TGI (SW-620 colon): > 100 µM
- TGI (OVCAR-5 ovarian): > 100 µM
- TGI (UO-31 renal): > 100 µM
- TGI (M14 melanoma): > 100 µM
- TGI (SF-268 CNS): > 100 µM
- TGI (HOP-62 NSCLC): > 100 µM
- TGI (UACC-257 melanoma): > 100 µM
- TGI (MOLT-4 leukemia): > 100 µM
- TGI (DMS 273 small cell lung): > 100 µM
- TGI (SN12C renal): > 100 µM
- TGI (SK-MEL-5 melanoma): > 100 µM
- TGI (OVCAR-8 ovarian): > 100 µM
- TGI (SF-539 CNS): > 100 µM
- TGI (OVCAR-4 ovarian): > 100 µM
- TGI (MALME-3M melanoma): > 100 µM
- TGI (SNB-19 CNS): > 100 µM
- TGI (M19-MEL melanoma): > 100 µM
- TGI (HT29 colon): > 100 µM
- TGI (IGROV1 ovarian): > 100 µM
- TGI (DMS 114 small cell lung): > 100 µM
- TGI (DLD-1 colon): > 100 µM
- TGI (NCI-H23 lung): > 100 µM
- TGI (KM20L2 colon): > 100 µM
- TGI (SF-295 CNS): > 100 µM
- TGI (LOX IMVI melanoma): > 100 µM
- TGI (HCT-15 colon): > 100 µM
- TGI (SK-OV-3 ovarian): > 100 µM
- TGI (SNB-75 CNS): > 100 µM
- TGI (LXFL 529 NSCLC): > 100 µM
- TGI (A549 NSCLC): > 100 µM
- TGI (SK-MEL-28 melanoma): > 100 µM
- TGI (CAKI-1 renal): > 100 µM
- TGI (SK-MEL-2 melanoma): > 100 µM
- TGI (NCI-H226 lung): 20.8 µM
- TGI (KM12 colon): > 100 µM
- TGI (HOP-92 NSCLC): > 100 µM
- TGI (COLO 205 colon): > 100 µM
- TGI (ACHN renal): > 100 µM
- TGI (786-0 renal): > 100 µM
- TGI (TK-10 renal): > 100 µM
- TGI (U251 CNS): > 100 µM
- TGI (HCT-116 colon): > 100 µM
- TGI (HL-60(TB) leukemia): > 100 µM
- TGI (NCI-H460 lung): > 100 µM
- TGI (HOP-18 NSCLC): > 100 µM
- TGI (SNB-78 CNS): > 100 µM

Compound: O=C(N/C(=C\c1cc(Cl)ccc1Cl)c1nc2ccccc2[nH]1)c1ccccc1
- TGI (K-562 leukemia): 76.6 µM
- TGI (NCI-H522 lung): > 100 µM
- TGI (OVCAR-3 ovarian): > 100 µM
- TGI (UACC-62 melanoma): > 100 µM
- TGI (CCRF-CEM leukemia): 88.3 µM
- TGI (RXF 393 renal): 64.4 µM
- TGI (SR leukemia): 81.7 µM
- TGI (SW-620 colon): 52.8 µM
- TGI (OVCAR-5 ovarian): > 100 µM
- TGI (UO-31 renal): 62.7 µM
- TGI (M14 melanoma): 69.7 µM
- TGI (SF-268 CNS): > 100 µM
- TGI (MOLT-4 leukemia): 63.8 µM
- TGI (HCC-2998 colon): 37.8 µM
- TGI (SN12C renal): > 100 µM
- TGI (SK-MEL-5 melanoma): 53.3 µM
- TGI (OVCAR-8 ovarian): 46.9 µM
- TGI (SF-539 CNS): > 100 µM
- TGI (OVCAR-4 ovarian): > 100 µM
- TGI (MALME-3M melanoma): > 100 µM
- TGI (SNB-19 CNS): > 100 µM
- TGI (M19-MEL melanoma): > 100 µM
- TGI (HT29 colon): 29.8 µM
- TGI (DMS 114 small cell lung): > 100 µM
- TGI (DLD-1 colon): 37 µM
- TGI (NCI-H23 lung): 96.9 µM
- TGI (KM20L2 colon): > 100 µM
- TGI (SF-295 CNS): > 100 µM
- TGI (RXF-631 renal): > 100 µM
- TGI (HCT-15 colon): 71.9 µM
- TGI (SK-OV-3 ovarian): > 100 µM
- TGI (LXFL 529 NSCLC): > 100 µM
- TGI (A549 NSCLC): > 100 µM
- TGI (SK-MEL-28 melanoma): > 100 µM
- TGI (CAKI-1 renal): > 100 µM
- TGI (SK-MEL-2 melanoma): > 100 µM
- TGI (KM12 colon): 88.9 µM
- TGI (HOP-92 NSCLC): 31.5 µM
- TGI (ACHN renal): > 100 µM
- TGI (786-0 renal): 35.7 µM
- TGI (TK-10 renal): > 100 µM
- TGI (U251 CNS): > 100 µM
- TGI (EKVX NSCLC): > 100 µM
- TGI (HL-60(TB) leukemia): 67 µM
- TGI (XF 498 CNS): 69 µM
- TGI (SNB-78 CNS): > 100 µM
